Source: US10982100B2, “Slippery liquid-infused porous surfaces and biological applications thereof” (President and Fellows of Harvard College, priority 2011, dated 2021)

How the values were obtained:
[1] = Surface tension of polar and non-polar liquids; assay type: physicochemical
Description: Fluid-fluid interfacial tension can be measured by many well-established techniques, such as the Wilhelmy plate method, the Du Noüy ring method, and the pendant drop method (e.g., see Drelich et al., in Encyclopedia of Surface and Colloid Science, pp. 3152-3166, Marcel Dekker Inc, 2002, the contents of which is incorporated by reference herein in its entirety). Among all of the techniques, the pendant drop method is among the most popular and versatile technique, which can be easily extended to a two-liquid system. The pendant drop method measures the shape of a fluid-fluid interface and quantifies the shape distortion due to the competition between the fluid-fluid interfacial tension and gravity. In practice, a drop of denser fluid (e.g., Object A) is suspended by a syringe needle in medium X (i.e., air/water/the lubricating fluid). Owing to the influence of gravity, the denser liquid droplet will be deformed as the liquid volume increases. The shape profile of the liquid droplet is captured by an optical system and subsequently analyzed by a computer software when the liquid volume is increased to the maximum possible size (i.e., before the liquid drop is detached from the syringe needle). The interfacial tension of the fluid-fluid interface, γ, can then be deduced from the formula, γ=ΔρgD^2/H, where Δρ is the density difference between the two immiscible fluids, g is gravity, D is equatorial diameter of the liquid droplet, and H is drop shape dependent parameters which is a function of the shape profile of the droplet.

[2] = Stable lubricating film for solid-Liquid A-Liquid B combinations, theory versus experiment; assay type: physicochemical; set-up: key: “Y” indicates that Liquid B forms a stable lubricating film, and is not displaced by Object A; “N” indicates that Liquid B is displaced by Object A; conditions: label = Liquid A
Description: When the relationship holds, the lubricating liquid will stay in intimate contact with the porous solid without being displaced by Liquid A. Note that the equilibrium contact angles were estimated from the average values of the advancing and receding contact angles of Liquid A and the lubricating liquid on the flat solid surface. Satisfying the relationship can help promote the operation stability of the slippery surface where the liquid layer is substantially completely covered by the test liquid (i.e., two-phase environments that involve a single fluid interface between the test liquid and the liquid layer) and where the liquid layer contacts a droplet of the test fluid as well as air (i.e., three-phase environments that involve three fluid interfaces of (i) test liquid-liquid layer, (ii) test liquid-air, and (iii) liquid layer-air). […] Notice that γA and γB are equivalent to γAX and γBX defined in the text, and medium X is air specifically in this context. Variable γAB represents the interfacial tension for Object A-Liquid B interface. […] M., Ind. Eng. Chem. 56, 40-42, 1964; Israelachvili, J. N. Intermolecular and Surface Forces, Academic Press, 2011). The dispersion force contribution of water surface tension […]., Ind. Eng. Chem. 56, 40-42, 1964). S. Epoxy represents silanized epoxy resin substrate.

[3] = Contact angles of various liquids on flat solids; assay type: physicochemical; set-up: unit not given here
Protocol: The behavior of liquids on surfaces is described by an equilibrium contact angle. An equilibrium contact angle, θ, is the angle at which a liquid/vapor interface meets a solid surface, which is determined by the interactions across the three interfaces, e.g., solid/liquid/vapor. […] The upper limit is known as the apparent advancing contact angle (θA), whereas the lower limit is referred as the apparent receding contact angle (θR). The difference between these values is known as contact angle hysteresis (i.e., Δθ=θA−θR, where θA≥θ≥θR), which characterizes the liquid repellency of a surface. Conventionally, equilibrium contact angle can be roughly estimated by the average of the advancing and receding angles (i.e., θ=(θA+θR)/2), or by a static contact angle, θstatic (i.e., θ=θstatic).
In practice, contact angle measurement can be performed by a number of different well-established techniques, such as the sessile drop method and the Wilhelmy method. In particular, the sessile drop method is among the most popular technique for contact angle measurement. In this technique, a liquid droplet is deposited on a targeted solid surface, where the liquid profile is captured by an optical system of a goniometer and geometrically fitted to obtain the contact angle. The contact angle measured from a static liquid droplet deposited on the surface is known as the static contact angle, θstatic. Using the same system, advancing contact angle, θA, can be measured while the volume of the drop is increasing until the wetting line starts to advance. Receding contact angle, θR, can be measured by decreasing the volume of the drop and determining the contact angle just before the wetting line recedes. Alternatively, the advancing and the receding angles of the liquid drop can also be determined by gradually tilting the solid surface until the liquid drop starts to move.

P. aeruginosa = conditions: 1% and 0.1% concentrations; 3, 6, 9, and 30 hours; 550 nm
[4] = Solid Epoxy, Liquid B FC-70, R 2
[5] = Solid S. Epoxy (silanized epoxy resin), Liquid B FC-70, R 2
[6] = Solid Silicon, Liquid B H2O, R 1
[7] = flat solid S. (silanized epoxy)
[8] = Solid Epoxy, Liquid B FC-70, R 1

Structure (SMILES)	Surface Tension [1]	Stable Film? Exp. [2, 4]	Stable Film? Theory [2, 4]	Stable Film? Exp. [2, 5]	Stable Film? Theory [2, 5]	Stable Film? Exp. [2, 6]	Stable Film? Theory [2, 6]	Measured contact angle θadv ([3]; flat solid Epoxy)	Measured contact angle θrec ([3]; flat solid Epoxy)	Measured contact angle θstatic ([3]; flat solid Epoxy)	Measured contact angle θadv [3, 7]	Measured contact angle θrec [3, 7]	Measured contact angle θstatic [3, 7]	Measured contact angle θadv ([3]; flat solid Silicon)	Measured contact angle θrec ([3]; flat solid Silicon)	Measured contact angle θstatic ([3]; flat solid Silicon)	also measured
OCCO [Ethylene Glycol]	48.1 ± 0.3 mN/m	–	–	–	–	–	–	–	–	–	–	–	–	–	–	–	–
CCCCCCCCCCCC [Dodecane]	25.3 ± 0.1 mN/m	–	–	–	–	–	–	–	–	–	–	–	–	–	–	–	–
CCCCCCC [Heptane]	19.9 ± 0.3 mN/m	–	–	–	–	–	–	–	–	–	–	–	–	–	–	–	–
CCCCC [Pentane]	17.2 ± 0.5 mN/m	N	N	Y	Y	N	Y/N	~0.0	~0.0	~0.0	36.4 ± 2.5	17.0 ± 1.8	30.8 ± 3.1	<5.0	~0.0	<5.0	–
CCCCCCCCCCCCCCCC [Hexadecane]	27.2 ± 0.2 mN/m	N	N	Y	Y	N	N	32.8 ± 1.4	25.7 ± 0.9	30.6 ± 0.4	76.3 ± 1.4	50.0 ± 3.9	70.5 ± 2.0	17.3 ± 1.6	~0.0	5.6 ± 1.1	Stable Film? Exp. [2, 8]: N; Stable Film? Theory [2, 8]: Y/N
O [Water]	72.4 ± 0.1 mN/m	Y	Y/N	Y	Y	–	–	100.3 ± 3.1	67.0 ± 4.5	92.6 ± 1.8	118.9 ± 1.7	90.8 ± 0.9	113.1 ± 2.8	14.4 ± 2.7	~0.0	13.1 ± 1.7	Stable Film? Exp. [2, 8]: N; Stable Film? Theory [2, 8]: Y/N; Stable Film? Exp. ([2]; Solid PDMS, Liquid B PDMS, R 1): Y; Stable Film? Theory ([2]; Solid PDMS, Liquid B PDMS, R 1): Y; Stable Film? Exp. ([2]; Solid PP, Liquid B PDMS, R 1): Y; Stable Film? Theory ([2]; Solid PP, Liquid B PDMS, R 1): Y; Stable Film? Exp. ([2]; Solid PP, Liquid B PDMS, R 2): Y; Stable Film? Theory ([2]; Solid PP, Liquid B PDMS, R 2): Y; Stable Film? Exp. ([2]; Solid PTFE, Liquid B PDMS, R 2): Y; Stable Film? Theory ([2]; Solid PTFE, Liquid B PDMS, R 2): Y
CCCCCCCCCCCCC [Tridecane]	25.9 ± 0.1 mN/m	N	N	Y	Y	–	–	28.3 ± 1.1	25.4 ± 0.7	26.9 ± 1.7	72.8 ± 0.2	48.1 ± 3.1	63.5 ± 2.8	–	–	–	Stable Film? Exp. [2, 8]: N; Stable Film? Theory [2, 8]: Y/N
CCCCCCCC [Octane]	21.4 ± 0.2 mN/m	N	N	Y	Y	N	N	9.7 ± 1.2	6.1 ± 0.2	7.9 ± 0.7	57.7 ± 2.5	23.8 ± 4.0	50.7 ± 3.0	<5.0	~0.0	<5.0	–
CCCCCCCCC [Nonane]	22.6 ± 0.2 mN/m	–	–	–	–	–	–	–	–	–	–	–	–	–	–	–	–
CCCCCCCCCCC [Undecane]	24.6 ± 0.2 mN/m	–	–	–	–	–	–	–	–	–	–	–	–	–	–	–	–
O=CCCCC=O [glutaraldehyde, reference compound]	–	–	–	–	–	–	–	–	–	–	–	–	–	–	–	–	bacterial growth (optical densities) compared to control culture (P. aeruginosa): massive toxicity
CCCCCC [Hexane]	18.6 ± 0.5 mN/m	N	N	Y	Y	N	Y/N	~0.0	~0.0	~0.0	52.5 ± 0.3	22.8 ± 1.7	40.1 ± 4.2	<5.0	~0.0	<5.0	–
OCC(O)CO [Glycerol]	60.3 ± 1.1 mN/m	–	–	–	–	–	–	–	–	–	–	–	–	–	–	–	–
CCCCCCCCCC [Decane]	23.6 ± 0.1 mN/m	N	N	Y	Y	N	N	15.0 ± 1.6	13.7 ± 0.9	14.2 ± 0.7	66.0 ± 4.1	38.5 ± 0.7	60.0 ± 2.8	7.9 ± 1.0	~0.0	<5.0	Stable Film? Exp. [2, 8]: N; Stable Film? Theory [2, 8]: N
